Measurements reported in PMC7327145 (Biomolecules & Therapeutics, 2020).
Several values for one entry are separate records, joined by “and”; a condition that tells them apart may be missing. Equal values may be shown once. Read-outs that look alike come from different tables or passages of the source.

Assays:
[1] = Rat plasma protein binding by equilibrium dialysis; format: in vitro ADME; conditions: fresh plasma, pH 7.4, Plasma protein binding, range over control and SIDM rats
[2] = intestinal microsomes
[3] = hepatic microsomes, SIDM vs control
[4] = format: in vivo, rat; conditions: for AUC / clearance / MRT / half-life / Vd: plasma; for clearance: CL; for half-life: Terminal half-life; for Vd: VSS
P-glycoprotein (P-gp) = conditions: ref Hussa, 2014; cited from earlier work
[5] = format: in vivo, rat; conditions: for CL renal: plasma and urine, CLR; for bioavailability: oral, F (bioavailability), oral 20 mg/kg vs intravenous 10 mg/kg
[6] = ref Lawendy et al., 2009; Dowty et al., 2014; cited from earlier work
[7] = Tissue distribution of tofacitinib 30 min after intravenous administration; format: in vivo, rat; conditions: 30 min after intravenous 10 mg/kg, control and SIDM rats
[8] = intravenous 10 mg/kg, SIDM rats
[9] = intravenous 10 mg/kg, SIDM vs control
[10] = intravenous 10 mg/kg, control rats
[11] = rat, iv, 10 mg/kg, control rats

For `C[C@@H]1CCN(C(=O)CC#N)C[C@@H]1N(C)c1ncnc2[nH]ccc12` [tofacitinib, 3-[(3R,4R)-4-methyl-3-[methyl-(7H-pyrrolo[2,3-day]pyrimidin-4-yl)amino]piperidin-1-yl]-3-oxopropanenitrile], the fraction unbound at 24 h, 10 µg/mL [1] was 0.769 to 0.781, the “Km, SIDM vs control rats” value [2] was “comparable” and the “CLint faster in SIDM rats than control rats” value ([2]; SIDM vs control) was 35.4%. The “CLint faster in SIDM rats than control rats” value [3] was 112%, the “Km smaller in SIDM rats than control rats” value [3] was 44.3% and the “Ae0-24 h (dose excreted in urine for 24 h)” value (from here on “Ae0-24 h”) [4, 8] was 6.64 ± 1.65 % of dose. The CLNR [4, 8] was 55.5 ± 9.79 mL/min/kg, the “CLR estimated from the free (unbound to plasma proteins) fraction” value [4, 8] was 6.15 mL/min/kg and the “Contribution of CLR to CL” value [4, 8] was 7.97%. For the same compound, the “AUC smaller in SIDM rats than control rats” value [4, 9] was 33.6%, the “CL higher in SIDM rats than control rats” value [4, 9] was 51.1% and the “CLNR higher in SIDM rats than control rats” value [4, 9] was 43.8%. For the same compound, the “CLR higher in SIDM rats than control rats” value [4, 9] was 87.5%, the “Vss greater in SIDM rats than control rats” value [4, 9] was 262% and the “Ae0-24 h” value [4, 10] was 6.99 ± 2.30 % of dose. For the same compound, the CLNR [4, 10] was 38.6 ± 8.04 mL/min/kg, the “CLR estimated from the free (unbound to plasma proteins) fraction” value [4, 10] was 3.33 mL/min/kg and the “Contribution of CLR to CL” value [4, 10] was 6.42%. For the same compound, the CL renal ([4]; rat, plasma and urine, iv, 10 mg/kg, CLR, control rats) was 2.56 ± 0.59 mL/min/kg, the AUC ([4]; rat, iv, 10 mg/kg, SIDM rats (n=7)) was 2830 ng·h/mL and the AUC ([4]; rat, iv, 10 mg/kg, control rats (n=9)) was 4270 ng·h/mL. For the same compound, the clearance ([4]; rat, iv, 10 mg/kg, SIDM rats) was 60.3 ± 11.1 mL/min/kg, the clearance [4, 11] was 39.9 ± 6.74 mL/min/kg and the MRT ([4]; rat, iv, 10 mg/kg, SIDM rats) was 44.3 min. It also gave an MRT [4, 11] of 21.3 min, a half-life ([4]; rat, iv, 10 mg/kg, SIDM rats) of 26.5 ± 2.81 min and a half-life [4, 11] of 30.2 ± 4.83 min. The Vd ([4]; rat, iv, 10 mg/kg, SIDM rats) was 3.56 ± 2.38 L/kg, the Vd [4, 11] was 0.986 ± 0.379 L/kg and the “P-glycoprotein (P-gp) substrate status” value (P-glycoprotein (P-gp)) was “substrate of P-glycoprotein”. The “Ae0-24 h” value ([5]; oral 20 mg/kg, SIDM rats) was 6.94 ± 2.42 % of dose, the “GI24 h (dose remaining in the gastrointestinal tract at 24 h)” value ([5]; oral 20 mg/kg, SIDM rats, 20 mg/kg) was 0.238 % of dose and 0.238 ± 0.160 % of dose and the “AUC lower in SIDM rats than control rats” value ([5]; oral 20 mg/kg, SIDM vs control) was 55.5%. For the same compound, the “CLR higher in SIDM rats than control rats” value ([5]; oral 20 mg/kg, SIDM vs control) was 145%, the “Cmax lower in SIDM rats than control rats” value ([5]; oral 20 mg/kg, SIDM vs control) was 61.1% and the “Decrease of F (bioavailability) in SIDM rats vs control rats” value ([5]; oral 20 mg/kg, SIDM vs control, 20 mg/kg) was 33%. The “Ae0-24 h” value ([5]; oral 20 mg/kg, control rats) was 7.98 ± 1.34 % of dose, the “GI24 h (dose remaining in the gastrointestinal tract at 24 h)” value ([5]; oral 20 mg/kg, control rats, 20 mg/kg) was 0.177 % of dose and 0.177 ± 0.123 % of dose and the CL renal ([5]; rat, po, 20 mg/kg, oral 20 mg/kg, SIDM rats) was 21.7 ± 14.9 mL/min/kg. It also gave a CL renal ([5]; rat, po, 20 mg/kg, oral 20 mg/kg, control rats) of 8.86 ± 13.5 mL/min/kg, a bioavailability ([5]; rat, plasma, 20 mg/kg, SIDM rats) of 23.8% and a bioavailability ([5]; rat, plasma, 20 mg/kg, control rats) of 35.5%. The AUC ([5]; rat, plasma, po, 20 mg/kg, oral 20 mg/kg, SIDM rats (n=7)) was 1350 ng·h/mL, the AUC ([5]; rat, plasma, po, 20 mg/kg, oral 20 mg/kg, control rats (n=8)) was 3030 ng·h/mL and the Cmax ([5]; rat, plasma, po, 20 mg/kg, Cmax, oral 20 mg/kg, SIDM rats) was 680 ± 360 ng/mL. The Tmax ([5]; rat, plasma, po, 20 mg/kg, oral 20 mg/kg, SIDM rats) was 25.7 min, the Tmax ([5]; rat, plasma, po, 20 mg/kg, oral 20 mg/kg, control rats) was 17.9 min and the Terminal half-life [6] was “approximately 3.3 h”. For the same compound, the Tissue distribution [7] was “widely distributed”.
